The experiment deals with T1, human SGLT1 (Homo sapiens, UniProt P13866).
T1 construct: expressed in transfected cells
T1 sequence (P13866 1-664): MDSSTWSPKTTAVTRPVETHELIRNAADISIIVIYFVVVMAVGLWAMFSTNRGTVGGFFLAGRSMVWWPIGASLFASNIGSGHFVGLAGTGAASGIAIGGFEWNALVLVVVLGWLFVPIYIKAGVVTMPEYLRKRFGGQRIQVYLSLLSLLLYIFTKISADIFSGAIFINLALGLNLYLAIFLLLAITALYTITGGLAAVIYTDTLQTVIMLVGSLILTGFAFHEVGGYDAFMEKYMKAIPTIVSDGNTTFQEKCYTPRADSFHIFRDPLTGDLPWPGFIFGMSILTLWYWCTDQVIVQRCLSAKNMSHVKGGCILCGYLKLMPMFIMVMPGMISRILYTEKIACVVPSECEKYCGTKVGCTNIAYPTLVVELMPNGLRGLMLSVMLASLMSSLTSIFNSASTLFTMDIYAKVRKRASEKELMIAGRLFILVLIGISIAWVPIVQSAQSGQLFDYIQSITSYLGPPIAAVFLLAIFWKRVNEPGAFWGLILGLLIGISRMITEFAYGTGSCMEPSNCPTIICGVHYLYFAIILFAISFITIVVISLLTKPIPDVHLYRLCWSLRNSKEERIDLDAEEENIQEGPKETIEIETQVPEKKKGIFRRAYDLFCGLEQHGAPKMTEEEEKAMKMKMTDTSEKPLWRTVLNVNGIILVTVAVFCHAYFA
The experiment can be described thus: Assay for inhibitory effects on human SGLT1 activity (uptake of methyl-α-D-glucopyranoside in CS1-5-11D cells). It is filed as cell-based. The following applies: CHO-K1 cells stably expressing human SGLT1 (CS1-5-11D); 1 mM α-MG uptake, 37° C., 1 hour. The method, then:
Assay for Inhibitory Effects on Human SGLT1 Activity
1) Cloning and Construction of the Vector Expressing Human SGLT1
The cDNA library was prepared for PCR amplification by reverse transcription from total RNA deprived from human small intestine (Ori gene) using oligo-dT as a primer.
2) Establishment of Cell Line Stably Expressing Human SGLT1
The expression vector of human SGLT1 was digested by Sca I into a linear DNA. The linear DNA was transfected into CHO-K1 cells by means of lipofection (Effectene Transfection Reagent: QIAGEN). Neomycin resistant cell lines were selected by culture in the medium containing G418 (1 mg/mL, LIFE TECHNOLOGIES), and then the activity against the uptake of methyl-α-D-glucopyranoside was measured by the method described below. […] CS1-5-11D cells were cultured in the presence of G418 at 200 μg/mL.
3) Measurement of the Inhibitory Activity Against the Uptake of Methyl-α-D-glucopyranoside (α-MG)
CS1-5-11D cells were seeded into a 96-well culture plate at a density of 3×10^4 cells/well and cultured for 2 days, and were used in the uptake assay. A mixture of non-labeled (Sigma) and ^14C-labeled α-MG (Amersham Pharmcia Biotec) was added to the uptake buffer (pH 7.4: containing 140 mM sodium chloride, 2 mM potassium chloride, 1 mM calcium chloride, 1 mM magnesium chloride, 10 mM 2-[4-(2-hydroxyethyl)-1-piperazinyl]ethane sulfonic acid, and 5 mM tris(hydroxymethyl)aminomethane) at the final concentration of 1 mM. A test compound was dissolved in dimethyl sulfoxide, and then appropriately diluted with distilled water. The test compound solution was added to the uptake buffer containing 1 mM α-MG, and designated as a measurement buffer. For the control group, the measurement buffer without any test compound was prepared. For measuring the basal uptake, a basal uptake measurement buffer which contains 140 mM chorine chloride instead of sodium chloride was prepared. After removing the culture medium of CS1-5-11D cells, 180 μL of the pre-treatment buffer (the basal uptake buffer without α-MG) was added to each well and incubated at 37° C. for 10 minutes. After repeating the same treatment, the pre-treatment buffer was removed. To each well was added 75 μL of the measurement buffer or the basal uptake buffer was added and incubated at 37° C. for 1 hour. After removing the measurement buffer, cells were washed twice with 180 μL per well of the washing buffer (the basal uptake buffer containing 10 mM non-labeled α-MG). The cells were solubilized by 75 μL per well of 0.2 mol/L sodium hydroxide. The cell lysates were transferred into PicoPlates (Packard), and then added 150 μL of MicroScint-40 (Packard) and mixed. Radioactivity was measured by means of micro-scintillation counter TopCount (Packard). One hundred was set to the difference between the uptake in the control group and the basal uptake, and the uptake of methyl α-D-glucopyranoside a teach drug concentration were calculated.

Each structure is given as a SMILES string. pIC50: −log10 of the molar value.

The text below walks through data of patent US8324176B2, “Pyrazole derivatives, medicinal composition containing the same, medicinal use thereof, and intermediate for production thereof” (Kissei Pharmaceutical Co., Ltd., priority 2002, dated 2012).

What is called pIC50 is the IC50 on a negative log10 scale, so that one unit is a factor of ten. Read a high pIC50 as a low IC50.

With `Cc1cc(OCCCN)ccc1Cc1c(O[C@@H]2O[C@H](CO)[C@@H](O)[C@H](O)[C@H]2O)n[nH]c1C(C)C` [Example 9, 4-{[4-(3-Aminopropoxy)-2-methylphenyl]methyl}-3-(β-D-glucopyranosyloxy)-5-isopropyl-1H-pyrazole], the pIC50 is 7.38.
The figure for `CC(C)c1[nH]nc(O[C@@H]2O[C@H](CO)[C@@H](O)[C@H](O)[C@H]2O)c1Cc1ccc(OCCCNC(=O)NC(CO)CO)cc1` [Example 22, 3-(β-D-Glucopyranosyloxy)-4-{[4-(3-{3-[2-hydroxy-1-(hydroxymethyl)ethyl]ureido}propoxy)phenyl]methyl}-5-isopropyl-1H-pyrazole] is 6.63.
Under `Cc1cc(OCCCNC(=O)NC(C)(CO)CO)ccc1Cc1c(O[C@@H]2O[C@H](CO)[C@@H](O)[C@H](O)[C@H]2O)n[nH]c1C(C)C` [Example 28, 3-(β-D-Glucopyranosyloxy)-4-{[4-(3-{3-[2-hydroxy-1-(hydroxymethyl)-1-(methyl)ethyl]ureido}propoxy)-2-methylphenyl]methyl}-5-isopropyl-1H-pyrazole] stands 7.05; under `Cc1cc(OCCCNC(=O)NC(C)(C)CO)ccc1Cc1c(O[C@@H]2O[C@H](CO)[C@@H](O)[C@H](O)[C@H]2O)n[nH]c1C(C)C` [Example 29, 3-(β-D-Glucopyranosyloxy)-4-{[4-(3-(3-[2-hydroxy-1,1-di(methyl)ethyl]ureido)propoxy)-2-methylphenyl]methyl}-5-isopropyl-1H-pyrazole], 7.72; under `Cc1cc(OCCCNC(=O)NCCO)ccc1Cc1c(O[C@@H]2O[C@H](CO)[C@@H](O)[C@H](O)[C@H]2O)n[nH]c1C(C)C` [Example 30, 3-(β-D-Glucopyranosyloxy)-4-[(4-(3-[3-(2-hydroxyethyl)ureido]propoxy)-2-methylphenyl)methyl]-5-isopropyl-1H-pyrazole], 6.59.
The compound `Cc1cc(OCCNC(=O)NC(C)(C)C(N)=O)ccc1Cc1c(O[C@@H]2O[C@H](CO)[C@@H](O)[C@H](O)[C@H]2O)n[nH]c1C(C)C` [Example 31, 4-{[4-(2-{3-[1-Carbamoyl-1-(methyl)ethyl]ureido}ethoxy)-2-methylphenyl]methyl}-3-(β-D-glucopyranosyloxy)-5-isopropyl-1H-pyrazole] had a negative logarithm of the IC50 (pIC50) of 6.78.
Compound `Cc1cc(OCCNC(=O)NC(C)(CO)CO)ccc1Cc1c(O[C@@H]2O[C@H](CO)[C@@H](O)[C@H](O)[C@H]2O)n[nH]c1C(C)C` [Example 32, 3-(β-D-Glucopyranosyloxy)-4-{[4-(2-{3-[2-hydroxy-1-(hydroxymethyl)-1-(methyl)ethyl]ureido}ethoxy)-2-methylphenyl]methyl}-5-isopropyl-1H-pyrazole] gave a pIC50 of 6.95.
The figure for `Cc1cc(OCCNC(=O)NC(C)(C)CO)ccc1Cc1c(O[C@@H]2O[C@H](CO)[C@@H](O)[C@H](O)[C@H]2O)n[nH]c1C(C)C` [Example 33, 3-(β-D-Glucopyranosyloxy)-4-{[4-(2-{3-[2-hydroxy-1,1-di(methyl)ethyl]ureido}ethoxy)-2-methylphenyl]methyl}-5-isopropyl-1H-pyrazole] is 7.19; for `CNC(=NC#N)NCCCOc1ccc(Cc2c(O[C@@H]3O[C@H](CO)[C@@H](O)[C@H](O)[C@H]3O)n[nH]c2C(C)C)cc1` [Example 36, 4-({4-[3-(2-Cyano-3-methylguanidino)propoxy]phenyl}methyl)-3-(β-D-glucopyranosyloxy)-5-isopropyl-1H-pyrazole] it is 6.42; for `CC(C)c1[nH]nc(O[C@@H]2O[C@H](CO)[C@@H](O)[C@H](O)[C@H]2O)c1Cc1ccc(OCCCNS(N)(=O)=O)cc1` [Example 38, 3-(β-D-Glucopyranosyloxy)-5-isopropyl-4-({4-[3-(sulfamoylamino)propoxy]phenyl}methyl)-1H-pyrazole] it is 6.61.
The compound `CC(C)c1[nH]nc(O[C@@H]2O[C@H](CO)[C@@H](O)[C@H](O)[C@H]2O)c1Cc1ccc(OCCCNC(C)(C)C(N)=O)cc1` [Example 48, 4-[(4-{3-[1-Carbamoyl-1-(methyl)ethylamino]propoxy}phenyl)methyl]-3-(β-D-glucopyranosyloxy)-5-isopropyl-1H-pyrazole] showed a pIC50 of 7.27.
